Columns and labels:
[1] = target: KAT6A Full length enzyme (Homo sapiens (Human), UniProt Q92794); test: KAT6A assay (SAMDI-MS acetylation of H3 1-21 peptide); format: biochemical; settings: Morrison equation fit; replicate number in parentheses; read-out: KAT6A Ki (nM) (replicate number)
[2] = target: KAT7+JADE1+EAF6+ING5 4 protein complex (Homo sapiens (Human), UniProt O95251); test: KAT7 JADE1 assay (SAMDI-MS acetylation of H3 1-21 peptide); format: biochemical; settings: Morrison equation fit; replicate number in parentheses; read-out: KAT7 JADE1 Ki (nM) (replicate number)

Chain of KAT6A Full length enzyme (Q92794 other isoform, or with tags, fused parts or gaps): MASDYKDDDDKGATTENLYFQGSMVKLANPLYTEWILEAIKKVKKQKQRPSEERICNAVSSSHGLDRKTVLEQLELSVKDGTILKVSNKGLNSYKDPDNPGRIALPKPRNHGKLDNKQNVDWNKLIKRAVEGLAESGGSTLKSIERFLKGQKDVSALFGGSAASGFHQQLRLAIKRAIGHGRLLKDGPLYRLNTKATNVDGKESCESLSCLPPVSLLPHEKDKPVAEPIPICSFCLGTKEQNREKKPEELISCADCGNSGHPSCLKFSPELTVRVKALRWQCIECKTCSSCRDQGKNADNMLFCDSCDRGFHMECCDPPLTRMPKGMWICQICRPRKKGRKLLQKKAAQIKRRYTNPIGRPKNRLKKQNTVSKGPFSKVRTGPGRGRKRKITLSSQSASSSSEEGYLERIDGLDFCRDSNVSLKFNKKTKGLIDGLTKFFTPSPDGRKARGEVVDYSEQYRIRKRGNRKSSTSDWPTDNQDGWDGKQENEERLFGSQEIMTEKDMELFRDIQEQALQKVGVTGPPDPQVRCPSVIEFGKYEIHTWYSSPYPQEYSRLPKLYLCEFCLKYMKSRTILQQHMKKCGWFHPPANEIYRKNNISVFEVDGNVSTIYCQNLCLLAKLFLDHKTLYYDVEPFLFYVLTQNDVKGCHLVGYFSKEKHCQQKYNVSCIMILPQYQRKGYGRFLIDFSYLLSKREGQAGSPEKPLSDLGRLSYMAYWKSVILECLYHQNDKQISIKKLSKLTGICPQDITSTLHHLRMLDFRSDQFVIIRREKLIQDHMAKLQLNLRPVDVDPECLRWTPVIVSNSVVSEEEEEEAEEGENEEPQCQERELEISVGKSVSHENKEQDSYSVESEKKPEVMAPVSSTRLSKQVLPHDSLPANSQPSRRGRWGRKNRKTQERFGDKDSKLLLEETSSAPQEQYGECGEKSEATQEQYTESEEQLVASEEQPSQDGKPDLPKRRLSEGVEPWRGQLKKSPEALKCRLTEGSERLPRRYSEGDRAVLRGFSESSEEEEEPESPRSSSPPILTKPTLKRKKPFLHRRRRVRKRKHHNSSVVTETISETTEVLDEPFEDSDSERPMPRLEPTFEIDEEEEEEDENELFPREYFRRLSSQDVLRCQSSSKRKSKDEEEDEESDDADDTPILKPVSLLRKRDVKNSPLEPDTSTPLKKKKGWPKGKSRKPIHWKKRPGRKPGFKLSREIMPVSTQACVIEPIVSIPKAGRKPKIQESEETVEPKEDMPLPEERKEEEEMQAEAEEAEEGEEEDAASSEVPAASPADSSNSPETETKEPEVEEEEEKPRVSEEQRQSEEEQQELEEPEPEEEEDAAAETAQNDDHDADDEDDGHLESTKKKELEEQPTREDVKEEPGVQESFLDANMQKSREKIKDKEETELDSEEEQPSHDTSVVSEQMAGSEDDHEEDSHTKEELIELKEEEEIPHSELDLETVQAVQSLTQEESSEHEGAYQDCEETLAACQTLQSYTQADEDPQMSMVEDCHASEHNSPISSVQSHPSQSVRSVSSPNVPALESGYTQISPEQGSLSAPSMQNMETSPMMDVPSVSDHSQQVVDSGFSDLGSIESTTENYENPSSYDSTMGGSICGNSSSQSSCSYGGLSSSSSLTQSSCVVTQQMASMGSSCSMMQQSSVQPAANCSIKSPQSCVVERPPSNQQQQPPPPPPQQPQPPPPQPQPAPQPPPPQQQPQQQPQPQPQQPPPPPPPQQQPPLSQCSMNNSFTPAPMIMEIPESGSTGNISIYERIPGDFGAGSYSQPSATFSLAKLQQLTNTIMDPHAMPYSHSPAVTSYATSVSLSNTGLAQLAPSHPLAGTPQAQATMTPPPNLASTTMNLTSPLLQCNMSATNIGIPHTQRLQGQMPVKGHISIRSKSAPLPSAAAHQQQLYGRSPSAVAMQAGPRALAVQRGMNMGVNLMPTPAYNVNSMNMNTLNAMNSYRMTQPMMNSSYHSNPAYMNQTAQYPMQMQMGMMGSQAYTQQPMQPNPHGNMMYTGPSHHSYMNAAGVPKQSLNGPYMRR

Row | SMILES | Ki [1] [nM] | Ki [2] [nM]
1 | COc1cc2c(NS(=O)(=O)c3c(OC)cccc3OC)noc2cc1Nc1cc(C(=O)O)n[nH]1 [Example 54, 5-({3-[(2,6-dimethoxybenzene-1-sulfonyl)amino]-5-methoxy-1,2-benzoxazol-6-yl}amino)-1H-pyrazole-3-carboxylic acid] | 2 | > 2340
2 | COc1cc2c(NS(=O)(=O)c3c(OC)cccc3OC)noc2cc1Nc1[nH]nc(C)c1C(N)=O [Example 57, 5-({3-[(2,6-dimethoxybenzene-1-sulfonyl)amino]-5-methoxy-1,2-benzoxazol-6-yl}amino)-3-methyl-1H-pyrazole-4-carboxamide] | 6.2 | > 2340
3 | COc1cc2c(NS(=O)(=O)c3c(OC)cccc3OC)noc2cc1Nc1c(C(N)=O)c(C)nn1C [Example 58, 5-({3-[(2,6-dimethoxybenzene-1-sulfonyl)amino]-5-methoxy-1,2-benzoxazol-6-yl}amino)-1,3-dimethyl-1H-pyrazole-4-carboxamide] | 5.7 | > 12500
4 | COCc1cc(Nc2cc3onc(NS(=O)(=O)c4c(OC)cccc4OC)c3cc2OC)n(C)n1 [Example 60, 2,6-dimethoxy-N-(5-methoxy-6-{[3-(methoxymethyl)-1-methyl-1H-pyrazol-5-yl]amino}-1,2-benzoxazol-3-yl)benzene-1-sulfonamide] | > 377 | > 12500
5 | COc1cc2c(NS(=O)(=O)c3c(OC)cccc3OC)noc2cc1Nc1nc[nH]n1 [Example 61, 2,6-dimethoxy-N-{5-methoxy-6-[(1H-1,2,4-triazol-3-yl)amino]-1,2-benzoxazol-3-yl}benzene-1-sulfonamide] | 0.2 | 54.7
6 | COCc1cc(Nc2cc3onc(NS(=O)(=O)c4c(OC)cccc4OC)c3cc2OC)[nH]n1 [Example 91, 2,6-dimethoxy-N-(5-methoxy-6-{[3-(methoxymethyl)-1H-pyrazol-5-yl]amino}-1,2-benzoxazol-3-yl)benzene-1-sulfonamide] | 2.3 | 802
7 | COc1cc2c(NS(=O)(=O)c3c(OC)cccc3OC)noc2cc1Nc1cc(C(F)(F)F)n[nH]1 [Example 93, 2,6-dimethoxy-N-(5-methoxy-6-{[3-(trifluoromethyl)-1H-pyrazol-5-yl]amino}-1,2-benzoxazol-3-yl)benzene-1-sulfonamide] | 31.2 | 729
8 | CCOc1cc(C)c(F)cc1S(=O)(=O)Nc1noc2cc(Nc3n[nH]cc3F)c(OC)cc12 [Example 139, 2-Ethoxy-5-fluoro-N-{6-[(4-fluoro-1 H-pyrazol-3-yl)amino]-5-methoxy-1,2-benzoxazol-3-yl}-4-methylbenzene-1-sulfonamide] | 0.1 | 128
9 | COc1cc2c(NS(=O)(=O)c3c(OC)cc(C4CN(C)CCC4(F)F)cc3OC)noc2cc1Nc1cc(C2CC2)[nH]n1 (stereo not shown) [Example 177, N-{6-[(5-cyclopropyl-1 H-pyrazol-3-yl)amino]-5-methoxy-1,2-benzoxazol-3-yl}-4-[4,4-difluoro-1-(^2H3)methylpiperidin-3-yl]-2,6-dimethoxybenzene-1-sulfonamide] | 0.1 | 0.2
10 | COc1cc2c(NS(=O)(=O)c3c(OC)cc(C4C[C@H](F)CN4C)cc3OC)noc2cc1Nc1cc(C2CC2)n[nH]1 (stereo partly drawn) [Example 181, N-{6-[(3-cyclopropyl-1 H-pyrazol-5-yl)amino]-5-methoxy-1,2-benzoxazol-3-yl}-4-[(4S)-4-fluoro-1-methylpyrrolidin-2-yl]-2,6-dimethoxybenzene-1-sulfonamide] | 2 | 6.2
11 | COc1cc2c(NS(=O)(=O)c3c(OC)cc(C4C[C@H](C)CN4C)cc3OC)noc2cc1Nc1cc(C2CC2)n[nH]1 (stereo partly drawn) [Example 182, N-{6-[(3-cyclopropyl-1H-pyrazol-5-yl)amino]-5-methoxy-1,2-benzoxazol-3-yl}-4-[(4S)-1,4-dimethylpyrrolidin-2-yl]-2,6-dimethoxybenzene-1-sulfonamide] | 0.8 | 6.4
12 | COc1cc2c(NS(=O)(=O)c3c(OC)cc([C@@H]4CCCN4C)cc3OC)noc2cc1Nc1cc(C2CC2)n[nH]1 [Example 189] | 3.7 | 20.8
13 | COc1cc2c(NS(=O)(=O)c3c(OC)cc(C4CC(F)CCN4C)cc3OC)noc2cc1Nc1cc(C2CC2)[nH]n1 (stereo not drawn) [Example 192, N-{6-[(5-cyclopropyl-1 H-pyrazol-3-yl)amino]-5-methoxy-1,2-benzoxazol-3-yl}-4-trans(4-fluoro-1-methylpiperidin-2-yl)-2,6-dimethoxybenzene-1-sulfonamide] | 2.4 | 22.2
14 | COc1cc2c(NS(=O)(=O)c3c(OC)cc(C4CC(F)CCN4C)cc3OC)noc2cc1Nc1cc(C2CC2)[nH]n1 (stereo not drawn) [Example 193, N-{6-[(5-cyclopropyl-1 H-pyrazol-3-yl)amino]-5-methoxy-1,2-benzoxazol-3-yl}-4-trans(4-fluoro-1-methylpiperidin-2-yl)-2,6-dimethoxybenzene-1-sulfonamide] | 1.4 | 12
15 | COc1cc2c(NS(=O)(=O)c3c(OC)cc(CN4CCC(OC)CC4)cc3OC)noc2cc1Nc1cc(C2CC2)n[nH]1 [Example 194, N-{6-[(3-cyclopropyl-1 H-pyrazol-5-yl)amino]-5-methoxy-1,2-benzoxazol-3-yl}-2,6-dimethoxy-4-[(4-methoxypiperidin-1-yl)methyl]benzene-1-sulfonamide] | 1.7 | 6.3
16 | COc1cc2c(NS(=O)(=O)c3c(OC)cc(CN4CCC[C@H](C)C4)cc3OC)noc2cc1Nc1cc(C2CC2)n[nH]1 [Example 195, N-{6-[(3-cyclopropyl-1H-pyrazol-5-yl)amino]-5-methoxy-1,2-benzoxazol-3-yl}-2,6-dimethoxy-4-{[(3S)-3-methylpiperidin-1-yl]methyl}benzene-1-sulfonamide] | 2.5 | 18.9
17 | COc1cc2c(NS(=O)(=O)c3c(OC)cc(CN4CCC(F)(F)C4)cc3OC)noc2cc1Nc1cc(C2CC2)n[nH]1 [Example 196, N-{6-[(3-cyclopropyl-1H-pyrazol-5-yl)amino]-5-methoxy-1,2-benzoxazol-3-yl}-4-[(3,3-difluoropyrrolidin-1-yl)methyl]-2,6-dimethoxybenzene-1-sulfonamide] | 0.9 | 4
18 | COc1cc2c(NS(=O)(=O)c3c(OC)cc(CN4CCCC(F)(F)C4)cc3OC)noc2cc1Nc1cc(C2CC2)n[nH]1 [Example 199, N-{6-[(3-cyclopropyl-1H-pyrazol-5-yl)amino]-5-methoxy-1,2-benzoxazol-3-yl}-4-[(3,3-difluoropiperidin-1-yl)methyl]-2,6-dimethoxybenzene-1-sulfonamide] | 0.7 | 5.2
19 | COc1cc2c(NS(=O)(=O)c3c(OC)cc(CN4CC(C)C4)cc3OC)noc2cc1Nc1cc(C2CC2)n[nH]1 [Example 200, N-{6-[(3-cyclopropyl-1 H-pyrazol-5-yl)amino]-5-methoxy-1,2-benzoxazol-3-yl}-2,6-dimethoxy-4-[(3-methylazetidin-1-yl)methyl]benzene-1-sulfonamide] | 2.1 | 17.2
20 | COc1cc2c(NS(=O)(=O)c3c(OC)cc(CN4CC[C@@H](C(F)F)C4)cc3OC)noc2cc1Nc1cc(C2CC2)n[nH]1 [Example 204] | 1.1 | 4.9

Reference: patent US20250122183A1 (Pfizer Inc., priority 2023, published 2025)
